Assay results from EP2424865B1 (Boehringer Ingelheim International GmbH, priority 2009, dated 2010).
Like-named read-outs stand apart in the source and are kept apart here. Blank lines part the entries; values can stand above or below the molecule they belong to.

Key:
CYP2C9 = CYP2C9 (Homo sapiens, UniProt P11712); assay: Biological Test Example 9: CYP2C9 inhibition (Invitrogen kit, fluorogenic substrate OOMR); type: in vitro ADME
[1] = molecular target: human recombinant cytochrome P450 2C9 (Homo sapiens, UniProt P11712); assay: Biological Test Example 7: CYP2C9 inhibition ([O-methyl-14C]-Naproxen O-demethylation)
Chain of human recombinant cytochrome P450 2C9 (P11712 whole entry): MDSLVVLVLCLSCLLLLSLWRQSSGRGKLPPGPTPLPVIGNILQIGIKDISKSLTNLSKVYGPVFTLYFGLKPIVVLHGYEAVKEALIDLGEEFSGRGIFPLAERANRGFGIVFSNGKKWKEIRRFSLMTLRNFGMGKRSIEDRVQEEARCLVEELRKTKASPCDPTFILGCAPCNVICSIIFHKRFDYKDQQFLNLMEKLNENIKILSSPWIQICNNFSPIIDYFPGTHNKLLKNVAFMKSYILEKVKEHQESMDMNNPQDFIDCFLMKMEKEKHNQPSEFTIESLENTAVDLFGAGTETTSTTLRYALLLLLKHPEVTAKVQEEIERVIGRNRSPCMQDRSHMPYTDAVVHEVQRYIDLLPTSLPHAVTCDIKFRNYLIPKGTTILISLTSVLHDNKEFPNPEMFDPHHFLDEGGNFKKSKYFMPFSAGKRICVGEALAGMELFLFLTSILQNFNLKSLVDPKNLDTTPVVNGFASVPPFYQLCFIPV

[2] = molecular target: human recombinant cytochrome P450 2C19 (Homo sapiens, UniProt P33261); assay: Biological Test Example 8: CYP2C19 inhibition ([N-methyl-14C]-Diazepam N-demethylation)
Chain of human recombinant cytochrome P450 2C19 (P33261 whole entry): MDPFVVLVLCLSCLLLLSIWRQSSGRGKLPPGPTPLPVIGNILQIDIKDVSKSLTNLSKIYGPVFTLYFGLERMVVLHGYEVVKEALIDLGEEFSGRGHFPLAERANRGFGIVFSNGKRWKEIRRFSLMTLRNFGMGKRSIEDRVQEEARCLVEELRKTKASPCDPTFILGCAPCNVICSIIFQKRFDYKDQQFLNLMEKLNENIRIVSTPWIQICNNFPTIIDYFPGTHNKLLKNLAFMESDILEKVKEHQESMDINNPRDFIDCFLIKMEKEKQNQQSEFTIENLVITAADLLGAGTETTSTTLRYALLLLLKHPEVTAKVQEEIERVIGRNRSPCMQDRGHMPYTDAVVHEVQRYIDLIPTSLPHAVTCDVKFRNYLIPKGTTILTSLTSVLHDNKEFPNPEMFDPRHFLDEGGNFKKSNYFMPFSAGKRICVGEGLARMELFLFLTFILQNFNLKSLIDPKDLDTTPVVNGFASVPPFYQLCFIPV

[3] = molecular target: human recombinant cytochrome P450 3A4 (Homo sapiens, UniProt P08684)
Chain of human recombinant cytochrome P450 3A4 (P08684 whole entry): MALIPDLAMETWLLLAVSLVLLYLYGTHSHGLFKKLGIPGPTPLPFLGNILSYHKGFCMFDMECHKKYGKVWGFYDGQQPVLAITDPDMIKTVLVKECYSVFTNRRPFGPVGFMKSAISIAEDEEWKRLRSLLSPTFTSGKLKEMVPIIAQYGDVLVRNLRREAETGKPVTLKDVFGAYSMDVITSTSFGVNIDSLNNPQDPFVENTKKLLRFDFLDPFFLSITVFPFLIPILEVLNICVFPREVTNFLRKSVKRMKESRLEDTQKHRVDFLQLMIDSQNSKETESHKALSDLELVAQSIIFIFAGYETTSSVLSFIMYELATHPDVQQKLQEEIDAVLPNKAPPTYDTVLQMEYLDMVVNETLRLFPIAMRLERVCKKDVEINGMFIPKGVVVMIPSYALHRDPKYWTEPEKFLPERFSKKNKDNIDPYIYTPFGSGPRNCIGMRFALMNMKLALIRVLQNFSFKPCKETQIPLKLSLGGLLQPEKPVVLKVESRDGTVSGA

Plasma protein = assay: Biological Test Example 5: fraction unbound in human plasma (equilibrium dialysis); type: in vitro ADME
11β-HSD1 [4] = molecular target: T1, 11β-HSD1 (Homo sapiens, UniProt P28845); assay: biochemical; conditions: read-out: Average % control inhibition at 100 nM
T1 sequence (P28845 whole entry): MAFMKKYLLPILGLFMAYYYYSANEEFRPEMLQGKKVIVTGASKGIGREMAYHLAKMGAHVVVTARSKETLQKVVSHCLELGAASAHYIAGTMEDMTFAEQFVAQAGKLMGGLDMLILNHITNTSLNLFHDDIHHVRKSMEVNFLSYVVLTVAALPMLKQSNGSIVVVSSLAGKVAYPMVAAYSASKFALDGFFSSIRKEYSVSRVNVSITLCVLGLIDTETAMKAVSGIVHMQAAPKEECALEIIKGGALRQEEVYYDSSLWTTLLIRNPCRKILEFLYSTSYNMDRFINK

11β-HSD1 [5] = molecular target: T1, 11β-HSD1
[6] = Invitrogen kit, fluorogenic substrate OOMR
[7] = read-out: Biological Test Example 1 IC50, Examples
[8] = read-out: Biological Test Example 1 IC50 Range, microsomal preparation of human 11β-HSD1, SPA

Chain of CYP2C9 (P11712 whole entry): as the sequence (P11712 whole entry) above

SMILES: C[C@@H](c1ccc(-c2ccn(C)c(=O)c2)cc1)N1CC[C@](CC(C)(C)C#N)(c2ccccc2)OC1=O [Example 50, 2,2-dimethyl-3-((R)-3-((S)-1-(4-(1-methyl-2-oxo-1,2-dihydropyridin-4-yl)phenyl)ethyl)-2-oxo-6-phenyl-1,3-oxazinan-6-yl)propanenitrile]
IC50 (CYP2C9): 5.1 µM
IC50 [1]: 11 µM
IC50 [2]: 27 µM
IC50 [3]: 14 µM

SMILES: C[C@@H](c1ccc(-c2ccn(C3CC3)c(=O)c2)cc1)N1CC[C@](CC(C)(C)O)(c2ccccc2)OC1=O [Example 75, 3-{(S)-1-[4-(1-Cyclopropyl-2-oxo-1,2-dihydro-pyridin-4-yl)-phenyl]-ethyl}-(S)-6-(2-hydroxy-2-methyl-propyl)-6-phenyl-[1,3]oxazinan-2-one]
Biological Test Example 5 (%) (Plasma protein; Examples): 15.6%
IC50 [1]: 19 µM
IC50 [2]: 24 µM
IC50 [3]: 23 µM

SMILES: C[C@@H](c1ccc(-c2ccc(=O)n(CC3CC3)c2)cc1)N1CC[C@](CC(C)(C)O)(c2ccccc2)OC1=O [Example 76, 3-{(S)1-[4-(1-Cyclopropylmethyl-6-oxo-1,6-dihydro-pyridin-3-yl)-phenyl]-ethyt}-(S)-6-(2-hydroxy-2-methyl-propyl)-6-phenyl-[1,3]oxazinan-2-one]
inhibition at 0.1 µM (11β-HSD1 [4]): 17%
IC50 [1]: 4 µM
IC50 [2]: 9 µM
IC50 [3]: 10 µM

IC50 (CYP2C9; [6]): 7.5 µM
SMILES: C[C@@H](c1ccc(-c2ccc(=O)[nH]c2)cc1)N1CC[C@](CCCO)(c2ccccc2)OC1=O [Example 29, (R)-6-(3-hydroxypropyl)-3-((S)-1-(4-(6-oxo-1,6-dihydropyridin-3-yl)phenyl)ethyl)-6-phenyl-1,3-oxazinan-2-one]

IC50 (CYP2C9; [6]): 24.6 µM
IC50 [1]: 43 µM
IC50 [2]: 17 µM
IC50 [3]: > 50 µM
SMILES: C[C@@H](c1ccc(-c2ccc(=O)n(C)c2)cc1)N1CC[C@](CCCO)(c2ccc(F)cc2)OC1=O [Example 33, (R)-6-(4-fluorophenyl)-6-(3-hydroxypropyl)-3-((S)-1-(4-(1-methyl-6-oxo-1,6-dihydropyridin-3-yl)phenyl)ethyl)-1,3-oxazinan-2-one]

SMILES: Cc1cc(-c2ccn(C3CC3)c(=O)c2)cc(C)c1CN1CCC(CC(C)(C)O)(c2ccccc2)OC1=O (stereo not drawn) [Example 98]
inhibition at 0.1 µM (11β-HSD1 [4]): 67%

SMILES: C[C@@H](c1ccc(-c2ccc(=O)[nH]c2)cc1)N1CC[C@](CC(C)(C)O)(c2ccccc2)OC1=O [Example 1, (S)-6-(2-hydroxy-2-methytpropyl)-3-((S)-1-(4-(6-oxo-1,6-dihydropyridin-3-yl)phenyl)ethyl)-6-phenyl-1,3-oxazinan-2-one]
IC50 (CYP2C9; read-out: Biological Test Example 9 CYP2C9 IC50, comparator compounds, Invitrogen kit, fluorogenic substrate OOMR): 27 µM

SMILES: CC[C@@H](c1ccc(-c2ccc(=O)n(C)c2)cc1)N1CC[C@](CCO)(c2ccccc2)OC1=O [Example 40, (S)-6-(2-hydroxyethyl)-3-((S)-1-(4-(1-methyl-6-oxo-1,6-dihydropyridin-3-yl)phenyl)propyl)-6-phenyl-1,3-oxazinan-2-one]
IC50 (CYP2C9): 27.9 µM
IC50 [2]: 13 µM

SMILES: C[C@@H](c1ccc(-c2cc(=O)n(C)cc2F)cc1)N1CC[C@](CC(C)(C)O)(c2ccccc2)OC1=O [Example 79, 3-{(S)-1-[4-(5-Fluoro-1-methyl-2-oxo-1,2-dihydro-pyridin-4-yl)-phenyl]-ethyl}-(S)-6-(2-hydroxy-2-methyl-propyl)-6-phenyl-[1,3]oxazinan-2-one]
inhibition at 0.1 µM (11β-HSD1 [4]): 15%

SMILES: C[C@@H](c1ccc(-c2ccn(C3CC3)c(=O)c2)cc1)N1CCC(CC(C)(C)C)(CC(C)(C)O)OC1=O (single isomer, unassigned; isomer 1) [94 Isomer 1]
IC50 (11β-HSD1 [5]; [7]): > 0.1 µM

SMILES: C[C@@H](c1ccc(-c2ccn(C3CC3)c(=O)c2)cc1)N1CCC(CC(C)(C)C)(CC(C)(C)O)OC1=O (single isomer, unassigned) [Example 94 Isomer 2]
Biological Test Example 1 Average % inhibition at 100 nM (11β-HSD1 [5]; listed as EXAMPLE 94 Isomer 2, 0.1 µM): 8.2%
IC50 (11β-HSD1 [5]; [8]): > 0.1 µM

SMILES: C[C@@H](c1ccc(-c2ccn(C3CC3)c(=O)c2)cc1)N1CCC(CC(C)(C)O)(C2CCOCC2)OC1=O (single isomer, unassigned; isomer 1) [91 Isomer 1]
IC50 (11β-HSD1 [5]; [7]): > 0.1 µM

SMILES: C[C@@H](c1ccc(-c2ccn(C3CC3)c(=O)c2)cc1)N1CCC(CC(C)(C)O)(C2CC(F)(F)C2)OC1=O (single isomer, unassigned; isomer 1) [95 Isomer 1]
IC50 (11β-HSD1 [5]; [7]): > 0.1 µM

SMILES: C[C@@H](c1ccc(-c2ccn(CC(C)(C)O)c(=O)c2)cc1)N1CC[C@](CC(C)(C)O)(c2ccccc2)OC1=O [Example 80, (S)-6-(2-Hydroxy-2-methyl-propyl)-3-((S)-1-{4-[1-(2-hydroxy-2-methylpropyl)-2-oxo-1,2-dihydro-pyridin-4-yl]-phenyl}-ethyl)-6-phenyl-[1,3]oxazinan-2-one]
inhibition at 0.1 µM (11β-HSD1 [4]): 37%
IC50 [2]: 38 µM

SMILES: C[C@@H](c1ccc(-c2ccn(C3CC3)c(=O)c2)cc1)N1CCC(CC(C)(C)O)(C2CCOCC2)OC1=O (single isomer, unassigned; isomer 2) [91 Isomer 2]
IC50 (11β-HSD1 [5]; [7]): > 0.1 µM

SMILES: CC[C@@H](c1ccc(-c2ccn(C)c(=O)c2)cc1)N1CC[C@](CC(C)(C)O)(c2ccccc2)OC1=O [Example 55, (S)-6-(2-hydroxy-2-methylpropyl)-3-((S)-1-(4-(1-methyl-2-oxo-1,2-dihydropyridin-4-yl)phenyl)propyl)-6-phenyl-1,3-oxazinan-2-one]
Biological Test Example 5 (%) (Plasma protein; Examples): 7.1%
IC50 (CYP2C9): 24.3 µM
IC50 [1]: 29 µM
IC50 [2]: 13 µM
IC50 [3]: > 50 µM

Biological Test Example 5 (%) (Plasma protein; Examples): 12.3%
IC50 (CYP2C9; [6]): 28.7 µM
SMILES: C[C@@H](c1ccc(-c2ccc(=O)n(C)c2)cc1)N1CC[C@](CC(C)(C)O)(c2ccc(F)cc2)OC1=O [Example 32, (S)-6-(4-fluorophenyl)-6-(2-hydroxy-2-methylpropyl)3-((S)-1-(4-(1-methyl-6-oxo-1,6-dihydropyridin-3-yl)phenyl)ethyl)-1,3-oxazinan-2-one]

SMILES: C[C@@H](c1ccc(-c2ccn(C3CC3)c(=O)c2)cc1)N1CCC(CC(C)(C)O)(C2CC(F)(F)C2)OC1=O (single isomer, unassigned) [Example 95 Isomer 2]
Biological Test Example 1 Average % inhibition at 100 nM (11β-HSD1 [5]; 0.1 µM): 8.0%
IC50 (11β-HSD1 [5]; [8]): > 0.1 µM

Biological Test Example 5 (%) (Plasma protein; Comparator Compounds): 0.4%
IC50 (CYP2C9; [6]): 12.1 µM
SMILES: C[C@@H](c1ccc(-c2ccc(=O)n(C)c2)cc1)N1CC[C@](CC(C)(C)N(C)S(C)(=O)=O)(c2ccccc2)OC1=O [Example 12, N-methyl-N-(2-methyl-1-((S)-3-((S)-1-(4-(1-methyl-6-oxo-1,6-dihydropyridin-3-yl)phenyl)ethyl)-2-oxo-6-phenyl-1,3-oxazinan-6-yl)propan-2-yl)methanesulfonamide]

SMILES: C[C@@H](c1ccc(-c2ccn(CC(C)(C)CO)c(=O)c2)cc1)N1CC[C@](CC(C)(C)O)(c2ccccc2)OC1=O [Example 90, 3-((S)-1-{4-[1-(3-Hydroxy-2,2-dimethyl-propyl)-2-oxo-1,2-dihydro-pyridin-4-yl]-phenyl}-ethyl)-(S)-6-(2-hydroxy-2-methyl-propyl)-6-phenyl-[1,3]oxazinan-2-one]
inhibition at 0.1 µM (11β-HSD1 [4]): 4%

SMILES: C[C@@H](c1ccc(-c2ccc(=O)n(C)c2)cc1)N1CC[C@](CC(C)(C)O)(c2ccccc2)OC1=O [Example 37, (S)-6-(2-hydroxy-2-methylpropyl)-3-((S)-1-(4-(1-methyl-6-oxo-1,6-dihydropyridin-3-yl)phenyl)ethyl)-6-phenyl-1,3-oxazinan-2-one]
Biological Test Example 5 (%) (Plasma protein; Examples): 14.6%
IC50 (CYP2C9): 24.8 µM
IC50 [1]: 43 µM
IC50 [3]: 48 µM

SMILES: CCn1cc(-c2ccc([C@H](C)N3CC[C@](CCCO)(c4ccccc4)OC3=O)cc2)ccc1=O [Example 43, (R)-3-((S)-1-(4-(1-ethyl-6-oxo-1,6-dihydropyridin-3-yl)phenyl)ethyl)-6-(3-hydroxypropyl)-6-phenyl-1,3-oxazinan-2-one]
IC50 (CYP2C9): 10.5 µM

SMILES: C[C@@H](c1ccc(-c2ccn(C3CC3)c(=O)c2)cc1)N1CCC(CC(C)(C)O)(C2CCOCC2)OC1=O (single isomer, unassigned) [Example 91 Isomer 2]
Biological Test Example 1 Average % inhibition at 100 nM (11β-HSD1 [5]; 0.1 µM): 13.8%
IC50 (11β-HSD1 [5]; [8]): > 0.1 µM

IC50 (CYP2C9; [6]): 12.1 µM
SMILES: C[C@@H](c1ccc(-c2ccn(C)c(=O)c2)cc1)N1CC[C@](CCCO)(c2ccccc2)OC1=O [Example 47, (R)-6-(3-hydroxypropyl)-3-((S)-1-(4-(1-methyl-2-oxo-1,2-dihydropyridin-4-yl)phenyl)ethyl)-6-phenyl-1,3-oxazinan-2-one]

IC50 (CYP2C9; [6]): 14.8 µM
IC50 [1]: 29 µM
IC50 [2]: 46 µM
IC50 [3]: 32 µM
SMILES: C[C@@H](c1ccc(-c2ccc(=O)n(C)c2)cc1)N1CC[C@](CC(C)(C)C#N)(c2ccccc2)OC1=O [Example 49, 2,2-dimethyl-3-((R)-3-((S)-1-(4-(1-methyl-6-oxo-1,6-dihydropyridin-3-yl)phenyl)ethyl)-2-oxo-6-phenyl-1,3-oxazinan-6-yl)propanenitrile]
